Reference: patent publication US6810371B1 (priority 1906, dated 2004)
Like-named read-outs stand apart in the source and are kept apart here.

What was measured:
[1] = Estimated exposure amount of inhabitants (inhalation, percutaneous, oral); conditions: for estimated PERCUTANEOUS exposure amount: contact area 4.0 m^2/day; for estimated exposure amount in INHALATION (WINDOW CLOSED): exposure time 24 h/day; for estimated exposure amount in INHALATION (WINDOW OPEN): window opened for 5 minutes after spraying; for estimated ORAL exposure amount: hand surface area ratio about 5 %, oral transference ratio 100 %
From the text: estimated exposure amount in inhalation [mg/kg/day]=mean concentration in indoor air [mg/m^3]×amount of respiration [m^3/kg/min]×exposure time [min/day]
estimated percutaneous exposure amount [mg/kg/day]=(mean residual amount [mg/m^2]×skin attachment ratio [%]×contact area [m^2/day])/body weight [kg]
estimated oral exposure amount [mg/kg/day]=estimated percutaneous exposure amount [mg/kg/day]×hand surface area ratio [%]×oral transference ratio [%]
Here, the mean indoor respiration amount of Japanese is 0.220 [L/min/kg] for an adult, and 0.235 [L/min/kg] for an infant. Also, the exposure time was presumed to be 24 [h/day], taking account of the worst case where inhabitants are confined in the room for 24 hours after spraying.
In the table, “window closed” refers to the case where the window is closed throughout the exposure time, whereas “window open” refers to the case where spraying was effected in the state with the closed window and then the window was opened for 5 minutes (Example 3).
Here, it was assumed that the contact area for an infant and an adult was 4.0 [m^2/day], the body weight of the infant was 10.2 [kg], and the body weight of the adult was 50 [kg]. […] These values were used for calculating the estimated percutaneous exposure amount.
Here, while the hand surface area ratio was assumed to be about 5[%], and the oral transference ratio was presumed to be the worst case of 100[%], only the estimated oral exposure amount of the infant was calculated.

[2] = Experimental: Finally, if it is judged to be safe at S8, S12, or S15, overall safety is evaluated. Here, the sum of respective reciprocals of the previously determined inhalation safety coefficient, percutaneous safety coefficient, and oral safety coefficient is determined, and the reciprocal of thus determined value is defined as an overall safety coefficient (S16).
inhalation safety coefficient=inhalation non-influential amount [mg/kg/day]/estimated exposure amount in inhalation [mg/kg/day]
percutaneous safety coefficient=percutaneous non-influential amount [mg/kg/day]/estimated percutaneous exposure amount [mg/kg/day]
oral safety coefficient=oral non-influential amount [mg/kg/day]/estimated oral exposure amount [mg/kg/day]

rat = assay: Non-influential amount of a rat (inhalation, percutaneous, oral toxicity tests); format: in vivo; conditions: for non-influential in-air concentration: 4-week inhalation test (d-phenothrin 4 h/day, 6 days a week; d-tetramethrin 3 h/day, 7 days a week); for non-influential amount in inhalation: 4-week test (d-phenothrin 4 h/day, 6 days a week; d-tetramethrin 3 h/day, 7 days a week), respiration 0.365 L/min/kg; for non-influential amount for oral exposure: 6-month test; for non-influential amount for percutaneous exposure: 21-day test
From the text: (6-month test) for oral exposure. […] (6-month test) for oral exposure.

[3] = ADULT, respiration 0.220 L/min/kg
[4] = INFANT, respiration 0.235 L/min/kg

SMILES	estimated PERCUTANEOUS exposure amount ([1]; ADULT, body weight 50 kg)	estimated exposure amount in INHALATION (WINDOW CLOSED) [1, 3]	estimated exposure amount in INHALATION (WINDOW OPEN) ([1]; ADULT)	estimated PERCUTANEOUS exposure amount ([1]; INFANT, body weight 10.2 kg)	estimated exposure amount in INHALATION (WINDOW CLOSED) [1, 4]	estimated ORAL exposure amount ([1]; INFANT)	estimated exposure amount in INHALATION (WINDOW OPEN) ([1]; INFANT)	non-influential in-air concentration (rat) [mg/m^3]	non-influential amount in inhalation (rat) [mg/kg/day]	non-influential amount for oral exposure (rat) [mg/kg/day]	non-influential amount for percutaneous exposure (rat) [mg/kg/day]	also measured
CC(C)=CC1[C@@H](C(=O)OCc2cccc(Oc3ccccc3)c2)C1(C)C (stereo in doubt) [d-phenothrin]	0.553	0.744	0.149	2.71	0.795	0.135	0.159	210	18.4	125	1000	INHALATION (WINDOW CLOSED) safety coefficient ([2]; ADULT): 24,700; INHALATION (WINDOW OPEN) safety coefficient ([2]; ADULT): 124,000; PERCUTANEOUS safety coefficient ([2]; ADULT): 1,810,000; TOTAL (WINDOW CLOSED) safety coefficient ([2]; ADULT): 24,400; TOTAL (WINDOW OPEN) safety coefficient ([2]; ADULT): 116,000; INHALATION (WINDOW CLOSED) safety coefficient ([2]; INFANT): 23,100; INHALATION (WINDOW OPEN) safety coefficient ([2]; INFANT): 116,000; ORAL safety coefficient ([2]; INFANT): 923,000; PERCUTANEOUS safety coefficient ([2]; INFANT): 369,000; TOTAL (WINDOW CLOSED) safety coefficient ([2]; INFANT): 21,300; TOTAL (WINDOW OPEN) safety coefficient ([2]; INFANT): 80,400
CC(C)=CC1[C@@H](C(=O)OCN2C(=O)C3=C(CCCC3)C2=O)C1(C)C (stereo in doubt) [d-tetramethrin]	0.438	1.01	0.202	2.15	1.12	0.107	0.224	49	3.22	10.75	1000	
